According to ChEMBL document CHEMBL3244013, “Central nervous system activity of a novel class of annelated 1,4-benzodiazepines, aminomethylene-2,4-dihydro-1H-imidazo[1,2-a][1,4]benzodiazepin-1-ones” (J Med Chem, 1977):

How the values were obtained:
[1] = system: Mus musculus; test: Acute toxicity in po dosed CD-1 mouse assessed as mortality after 24 hrs; assay type: organism-based; details: in vivo
[2] = system: Mus musculus; test: Anticonvulsant activity in po dosed CD-1 mouse assessed as protection against maximal electroshock-induced convulsion; assay type: functional; details: CD-1, po
[3] = system: Mus musculus; test: Potentiation of chlorprothixene-induced sedative effect in po dosed CD-1 mouse assessed as loss of righting reflex; assay type: functional; details: CD-1, po
[4] = system: Mus musculus; test: Anticonvulsant activity in po dosed CD-1 mouse assessed as protection against strychnine-induced convulsion after 30 mins; assay type: functional; details: CD-1, po, 0.5 h
[5] = system: Mus musculus; test: Potentiation of hexobarbital-induced sedative effect in po dosed CD-1 mouse assessed as loss of righting reflex after 30 secs; assay type: functional; details: CD-1, po
[6] = system: Mus musculus; test: Induction of muscle relaxation in po dosed CD-1 mouse after 30 mins by rotary drum test; assay type: functional; details: CD-1, po, 0.5 h
[7] = system: Mus musculus; test: Anticonvulsant activity in po dosed CD-1 mouse assessed as protection against pentylenetetrazole-induced convulsion; assay type: functional; details: CD-1, po
[8] = system: Mus musculus; test: Antianxiety activity in po dosed CD-1 mouse assessed as inhibition of foot shock-induced aggression after 30 mins relative to control; assay type: functional; details: CD-1, po, 0.5 h

SMILES | ED50 [1] [mg/kg] | ED50 [2] [mg/kg] | ED50 [3] [mg/kg] | ED50 [4] [mg/kg] | ED50 [5] [mg/kg] | ED50 [6] [mg/kg] | ED50 [7] [mg/kg] | ED50 [8] [mg/kg]
N/C=C1\N=C2CN=C(c3ccccc3)c3cc(Cl)ccc3N2C1=O | > 1000 | > 50 | 4.3 | > 50 | 1.65 | > 50 | 7.1 | –
CN/C=C1\N=C2CN=C(c3ccccc3)c3cc(Cl)ccc3N2C1=O | > 1000 | – | > 50 | > 50 | > 50 | – | – | 5.3
CCN/C=C1\N=C2CN=C(c3ccccc3)c3cc(Cl)ccc3N2C1=O | > 1000 | 10 | > 10 | > 50 | 7.2 | 1.8 | 4 | 1.45
CCCN/C=C1\NC2CN=C(c3ccccc3)c3cc(Cl)ccc3N2C1=O (stereo unspecified) | > 1000 | 4 | 2.6 | > 50 | 3.9 | 2.8 | 1.55 | 0.92
CCCCN/C=C1\N=C2CN=C(c3ccccc3)c3cc(Cl)ccc3N2C1=O | > 1000 | 12.5 | 1.8 | 17 | 0.66 | 24 | 1.15 | 3.35
CC(C)(C)N/C=C1\N=C2CN=C(c3ccccc3)c3cc(Cl)ccc3N2C1=O | > 1000 | 19 | 14 | > 50 | 5 | 14.5 | 3.25 | 1.1
O=C1/C(=C/NC2CCCCC2)N=C2CN=C(c3ccccc3)c3cc(Cl)ccc3N12 | > 1000 | 8.5 | 6.2 | 15 | 8.3 | – | 2.35 | 1.4
O=C1/C(=C/NCCO)N=C2CN=C(c3ccccc3)c3cc(Cl)ccc3N12 | > 1000 | 9.5 | – | 16 | 3.6 | 2.6 | – | 1.5
CCN(CC)CCN/C=C1\N=C2CN=C(c3ccccc3)c3cc(Cl)ccc3N2C1=O | > 1000 | > 50 | > 50 | > 50 | > 50 | > 50 | 16 | > 20
CN(C)CCN(C)/C=C1\N=C2CN=C(c3ccccc3)c3cc(Cl)ccc3N2C1=O | > 1000 | – | > 50 | > 50 | > 50 | > 50 | – | –
O=CN1CCN(/C=C2\N=C3CN=C(c4ccccc4)c4cc(Cl)ccc4N3C2=O)CC1 | > 1000 | – | > 50 | – | – | – | – | > 20
O=C1/C(=C/N2CCCCC2)N=C2CN=C(c3ccccc3)c3cc(Cl)ccc3N12 | > 1000 | > 50 | > 50 | > 50 | 1 | – | 16 | > 20
CN1CCCC/C1=C1\N=C2CN=C(c3ccccc3)c3cc(Cl)ccc3N2C1=O | > 1000 | > 50 | – | – | – | > 50 | – | 20
O=C1/C(=C/c2ccccc2)N=C2CN=C(c3ccccc3)c3cc(Cl)ccc3N12 | > 1000 | – | – | > 50 | > 50 | – | > 50 | –
CN(C)c1ccc(/C=C2\N=C3CN=C(c4ccccc4)c4cc(Cl)ccc4N3C2=O)cc1 | > 1000 | – | – | > 50 | > 50 | > 50 | > 50 | > 20
CNC1=Nc2ccc(Cl)cc2C(c2ccccc2)=[N+]([O-])C1 [CHLORDIAZEPOXIDE] | – | 8 | 4 | 5 | 64 | 6.8 | 1.9 | 7
